This passage reports relative viability results from the supplement of paper PMC10307832.

What all share (assay): relative viability (nuclei count vs DMSO), 5 days (fraction); higher = more cells survive
Compound in the test “Ponatinib + Trametinib”: Cc1ccc(C(=O)Nc2ccc(CN3CCN(C)CC3)c(C(F)(F)F)c2)cc1C#Cc1cnc2cccnn12 [Ponatinib] + CC(=O)Nc1cccc(-n2c(=O)n(C3CC3)c(=O)c3c(Nc4ccc(I)cc4F)n(C)c(=O)c(C)c32)c1 [Trametinib] (partner 0.02 µM)
The gist of the method: (§1)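 One day after seeding in 1536-well plates, lung cancer cell lines were dosed by pin tool. Dosing was either single-drug or a fixed anchor-drug dose plus five library-drug doses (not always all listed) in √10 steps. After 5 days, nuclei were stained in one fix-and-stain step and counted on 4× images, and relative viability is the nuclei count of treated wells over that of vehicle wells, given as the median of duplicate plates.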

Compound in the test “Ponatinib + Navitoclax”: Cc1ccc(C(=O)Nc2ccc(CN3CCN(C)CC3)c(C(F)(F)F)c2)cc1C#Cc1cnc2cccnn12 [Ponatinib] + CC1(C)CCC(c2ccc(Cl)cc2)=C(CN2CCN(c3ccc(C(=O)NS(=O)(=O)c4ccc(N[C@H](CCN5CCOCC5)CSc5ccccc5)c(S(=O)(=O)C(F)(F)F)c4)cc3)CC2)C1 [Navitoclax] (partner 0.5 µM)
The procedure, abridged:
as §1

Compound in the test “Ponatinib + Linsitinib”: Cc1ccc(C(=O)Nc2ccc(CN3CCN(C)CC3)c(C(F)(F)F)c2)cc1C#Cc1cnc2cccnn12 [Ponatinib] + C[C@]1(O)C[C@@H](c2nc(-c3ccc4ccc(-c5ccccc5)nc4c3)c3c(N)nccn32)C1 [Linsitinib] (partner 1 µM)
The procedure, abridged:
as §1

Compound in the test “Ponatinib + Dasatinib”: Cc1ccc(C(=O)Nc2ccc(CN3CCN(C)CC3)c(C(F)(F)F)c2)cc1C#Cc1cnc2cccnn12 [Ponatinib] + Cc1nc(Nc2ncc(C(=O)Nc3c(C)cccc3Cl)s2)cc(N2CCN(CCO)CC2)n1 [Dasatinib] (partner 0.075 µM)
The procedure, abridged:
as §1

Compound in the test “Ponatinib + Palbociclib”: Cc1ccc(C(=O)Nc2ccc(CN3CCN(C)CC3)c(C(F)(F)F)c2)cc1C#Cc1cnc2cccnn12 [Ponatinib] + CC(=O)c1c(C)c2cnc(Nc3ccc(N4CCNCC4)cn3)nc2n(C2CCCC2)c1=O [Palbociclib] (partner 0.5 µM)
The gist of the method: as §1

Consider NCI-H596, for which the relative viability in the test with Ponatinib + Trametinib (first compound 0.002 µM) was determined as 0.783; in the test with Ponatinib + Trametinib (first compound 0.006325 µM), 0.812; with Ponatinib + Trametinib (first compound 0.06325 µM), 0.825; in the test with Ponatinib + Trametinib (first compound 0.2 µM), 0.642; in the test with Ponatinib + Navitoclax (first compound 0.002 µM), 0.845; in the test with Ponatinib + Navitoclax (first compound 0.006325 µM), 0.969. In addition, the relative viability with Ponatinib + Navitoclax (first compound 0.06325 µM) worked out at 1.03; with Ponatinib + Navitoclax (first compound 0.2 µM), 0.733; with Ponatinib + Linsitinib (first compound 0.002 µM), 1.03; with Ponatinib + Linsitinib (first compound 0.006325 µM) it was 1.01; with Ponatinib + Linsitinib (first compound 0.06325 µM), 1.08; in the test with Ponatinib + Linsitinib (first compound 0.2 µM) it was 0.792. For the same cell line, the relative viability worked out at 0.505 in the test with Ponatinib + Dasatinib (first compound 0.002 µM), 0.61 with Ponatinib + Dasatinib (first compound 0.006325 µM), 0.479 with Ponatinib + Dasatinib (first compound 0.06325 µM) and 0.373 in the test with Ponatinib + Dasatinib (first compound 0.2 µM).
As to NCI-H650, the relative viability with Ponatinib + Trametinib (first compound 0.002 µM) amounted to 0.929; with Ponatinib + Trametinib (first compound 0.006325 µM), 0.962; with Ponatinib + Trametinib (first compound 0.06325 µM), 0.949; in the test with Ponatinib + Trametinib (first compound 0.2 µM), 0.83; with Ponatinib + Palbociclib (first compound 0.002 µM), 0.313; with Ponatinib + Palbociclib (first compound 0.006325 µM) it was 0.321. For the same cell line, the relative viability came to 0.295 in the test with Ponatinib + Palbociclib (first compound 0.06325 µM); 0.314 with Ponatinib + Palbociclib (first compound 0.2 µM); 0.641 with Ponatinib + Linsitinib (first compound 0.002 µM); 0.83 with Ponatinib + Linsitinib (first compound 0.006325 µM); 0.809 with Ponatinib + Linsitinib (first compound 0.06325 µM); 0.743 with Ponatinib + Linsitinib (first compound 0.2 µM). For the same cell line, the relative viability with Ponatinib + Dasatinib (first compound 0.002 µM) came out at 0.37; with Ponatinib + Dasatinib (first compound 0.006325 µM) it was 0.456; with Ponatinib + Dasatinib (first compound 0.06325 µM), 0.492; in the test with Ponatinib + Dasatinib (first compound 0.2 µM), 0.411.
On to NCI-H661, for which the relative viability worked out at 0.544 in the test with Ponatinib + Trametinib (first compound 0.002 µM); 0.556 with Ponatinib + Trametinib (first compound 0.006325 µM); 0.524 in the test with Ponatinib + Trametinib (first compound 0.06325 µM); 0.453 with Ponatinib + Trametinib (first compound 0.2 µM); 0.412 with Ponatinib + Palbociclib (first compound 0.002 µM); 0.412 in the test with Ponatinib + Palbociclib (first compound 0.006325 µM). The relative viability was 0.434 with Ponatinib + Palbociclib (first compound 0.06325 µM); 0.416 with Ponatinib + Palbociclib (first compound 0.2 µM); 0.54 with Ponatinib + Linsitinib (first compound 0.002 µM); 0.598 in the test with Ponatinib + Linsitinib (first compound 0.006325 µM); 0.692 with Ponatinib + Linsitinib (first compound 0.06325 µM); 0.565 in the test with Ponatinib + Linsitinib (first compound 0.2 µM). The relative viability came out at 0.786 with Ponatinib + Dasatinib (first compound 0.002 µM), 0.965 with Ponatinib + Dasatinib (first compound 0.006325 µM), 0.987 in the test with Ponatinib + Dasatinib (first compound 0.06325 µM) and 0.819 with Ponatinib + Dasatinib (first compound 0.2 µM).
As to NCI-H1299, the relative viability in the test with Ponatinib + Navitoclax (first compound 0.002 µM) amounted to 1.05; in the test with Ponatinib + Navitoclax (first compound 0.006325 µM), 1.03; with Ponatinib + Navitoclax (first compound 0.06325 µM) it was 1.1; with Ponatinib + Navitoclax (first compound 0.2 µM) it was 1.01; with Ponatinib + Linsitinib (first compound 0.002 µM), 0.915; with Ponatinib + Linsitinib (first compound 0.006325 µM) it was 0.948. For the same cell line, the relative viability was determined as 0.971 in the test with Ponatinib + Linsitinib (first compound 0.06325 µM) and 0.951 with Ponatinib + Linsitinib (first compound 0.2 µM).
On to NCI-H1563, for which the relative viability with Ponatinib + Linsitinib (first compound 0.002 µM) was 1.22; with Ponatinib + Linsitinib (first compound 0.006325 µM), 1.26; in the test with Ponatinib + Linsitinib (first compound 0.06325 µM), 1.21; with Ponatinib + Linsitinib (first compound 0.2 µM), 1.1; with Ponatinib + Dasatinib (first compound 0.002 µM) it was 0.473; with Ponatinib + Dasatinib (first compound 0.006325 µM), 0.506. In addition, the results for the relative viability with Ponatinib + Dasatinib (first compound 0.06325 µM) and with Ponatinib + Dasatinib (first compound 0.2 µM) were 0.447 and 0.434, respectively.
As to NCI-H1648, the relative viability was 0.478 with Ponatinib + Trametinib (first compound 0.002 µM); 0.361 in the test with Ponatinib + Trametinib (first compound 0.006325 µM); 0.432 in the test with Ponatinib + Trametinib (first compound 0.06325 µM); 0.346 in the test with Ponatinib + Trametinib (first compound 0.2 µM); 0.266 with Ponatinib + Palbociclib (first compound 0.002 µM); 0.245 with Ponatinib + Palbociclib (first compound 0.006325 µM). Moreover, the relative viability in the test with Ponatinib + Palbociclib (first compound 0.06325 µM) was 0.246; with Ponatinib + Palbociclib (first compound 0.2 µM), 0.252.
Consider NCI-H1650, for which the relative viability in the test with Ponatinib + Trametinib (first compound 0.002 µM) came to 0.583; with Ponatinib + Trametinib (first compound 0.006325 µM), 0.543; with Ponatinib + Trametinib (first compound 0.06325 µM), 0.801; in the test with Ponatinib + Trametinib (first compound 0.2 µM), 0.474; in the test with Ponatinib + Palbociclib (first compound 0.002 µM), 0.345; with Ponatinib + Palbociclib (first compound 0.006325 µM), 0.365. The relative viability in the test with Ponatinib + Palbociclib (first compound 0.06325 µM) is 0.413; with Ponatinib + Palbociclib (first compound 0.2 µM) it was 0.335; with Ponatinib + Navitoclax (first compound 0.002 µM) it was 1.1; in the test with Ponatinib + Navitoclax (first compound 0.006325 µM), 1.22; with Ponatinib + Navitoclax (first compound 0.06325 µM), 1.49; with Ponatinib + Navitoclax (first compound 0.2 µM), 0.999. The relative viability with Ponatinib + Dasatinib (first compound 0.002 µM) was 0.298; with Ponatinib + Dasatinib (first compound 0.006325 µM), 0.346; with Ponatinib + Dasatinib (first compound 0.06325 µM) it was 0.327; in the test with Ponatinib + Dasatinib (first compound 0.2 µM) it was 0.349.
For the cell line NCI-H1703, the relative viability with Ponatinib + Navitoclax (first compound 0.002 µM) is 0.856; with Ponatinib + Navitoclax (first compound 0.006325 µM), 0.943; with Ponatinib + Navitoclax (first compound 0.06325 µM), 0.278; with Ponatinib + Navitoclax (first compound 0.2 µM) it was 0.205; in the test with Ponatinib + Linsitinib (first compound 0.002 µM), 0.641; in the test with Ponatinib + Linsitinib (first compound 0.006325 µM), 0.827. The figures for the relative viability with Ponatinib + Linsitinib (first compound 0.06325 µM) and with Ponatinib + Linsitinib (first compound 0.2 µM) were 0.364 and 0.25, respectively.
For the cell line NCI-H2170, the relative viability with Ponatinib + Trametinib (first compound 0.002 µM) came out at 0.865; in the test with Ponatinib + Trametinib (first compound 0.006325 µM) it was 0.962; with Ponatinib + Trametinib (first compound 0.06325 µM), 0.899; with Ponatinib + Trametinib (first compound 0.2 µM), 0.867; with Ponatinib + Palbociclib (first compound 0.002 µM), 0.361; with Ponatinib + Palbociclib (first compound 0.006325 µM), 0.431. Besides, the relative viability was found to be 0.362 with Ponatinib + Palbociclib (first compound 0.06325 µM); 0.377 with Ponatinib + Palbociclib (first compound 0.2 µM); 0.643 in the test with Ponatinib + Navitoclax (first compound 0.002 µM); 0.661 with Ponatinib + Navitoclax (first compound 0.006325 µM); 0.684 with Ponatinib + Navitoclax (first compound 0.06325 µM); 0.765 with Ponatinib + Navitoclax (first compound 0.2 µM). For the same cell line, the relative viability in the test with Ponatinib + Dasatinib (first compound 0.002 µM) was 0.46; with Ponatinib + Dasatinib (first compound 0.006325 µM), 0.591; in the test with Ponatinib + Dasatinib (first compound 0.06325 µM) it was 0.561; with Ponatinib + Dasatinib (first compound 0.2 µM), 0.491.
Regarding NCI-H2342, the relative viability with Ponatinib + Trametinib (first compound 0.002 µM) came out at 0.741; in the test with Ponatinib + Trametinib (first compound 0.006325 µM), 0.802; with Ponatinib + Trametinib (first compound 0.06325 µM), 0.936; in the test with Ponatinib + Trametinib (first compound 0.2 µM), 0.83; with Ponatinib + Palbociclib (first compound 0.002 µM), 0.548; with Ponatinib + Palbociclib (first compound 0.006325 µM), 0.522. Moreover, the relative viability came out at 0.461 in the test with Ponatinib + Palbociclib (first compound 0.06325 µM); 0.498 with Ponatinib + Palbociclib (first compound 0.2 µM); 0.285 in the test with Ponatinib + Dasatinib (first compound 0.002 µM); 0.309 with Ponatinib + Dasatinib (first compound 0.006325 µM); 0.296 in the test with Ponatinib + Dasatinib (first compound 0.06325 µM); 0.296 with Ponatinib + Dasatinib (first compound 0.2 µM).
Consider SW 900, for which the relative viability came out at 1 with Ponatinib + Trametinib (first compound 0.002 µM); 0.967 in the test with Ponatinib + Trametinib (first compound 0.006325 µM); 0.762 in the test with Ponatinib + Trametinib (first compound 0.06325 µM); 0.873 in the test with Ponatinib + Trametinib (first compound 0.2 µM); 0.484 with Ponatinib + Palbociclib (first compound 0.002 µM); 0.485 with Ponatinib + Palbociclib (first compound 0.006325 µM). Also, the relative viability turned out to be 0.569 with Ponatinib + Palbociclib (first compound 0.06325 µM); 0.516 in the test with Ponatinib + Palbociclib (first compound 0.2 µM); 0.682 with Ponatinib + Dasatinib (first compound 0.002 µM); 0.494 in the test with Ponatinib + Dasatinib (first compound 0.006325 µM); 0.453 with Ponatinib + Dasatinib (first compound 0.06325 µM); 0.48 with Ponatinib + Dasatinib (first compound 0.2 µM).
